Data: patent publication US20140314791A1, “METHODS OF TREATING CANCER” (DANA-FARBER CANCER INSTITUTE, INC., priority 2012, published 2014)

What was measured:
[1] = tested on: Lkb1-null t2, t4, and t5 cells; assay: dTTP rescue of shDtymk growth phenotype; type: cell-based, mouse; settings: without additional dTTP, 3 days
Description: (B) Morphology of Lkb1-null t2, t4, and t5 cells transduced with shGFP or shDtymk-1 and then cultured with or without additional 150 μM dTTP in medium for 3 days.
Next it was determined whether adding dTTP to the media could rescue cell death after Dtymk knockdown. Three Lkb1-null cell lines were transduced with shGFP or shDtymk-1 and then selectively cultured in puromycin medium in the presence or absence of 150 μM dTTP for 3 days (Taricani et al., 2010). […] Expression of DTYMK in the shDtymk-1 cells was not determined because the remaining cells were too few for RNA and protein extraction (FIG. 4B).

Lkb1-null cells [2] = assay: IdU pulse-labeling after Dtymk knockdown, Lkb1-null; type: cell-based, mouse; settings: for proportion of cells labeled with IdU: mean
Description: (§1) (E) Lkb1-wt and Lkb1-null cells in 6-well plates were transduced with shDtymk-1 or shGFP. Two sets of the cells were plated into multiple chamber slides: one was 2 days and the other was 3 days post transduction. After overnight culturing, the cells were labeled with 100 μM IdU for 20 min then fixed for indirect immunofluorescence staining with anti-BrdU. The data represent mean±SD for 200˜300 cells. Representative merged images of BrdU (red) and DAPI (blue) in the indicated cells are shown (F).
(§2) The lower expression of DTYMK in Lkb1-null cells causes the cells to be in jeopardy of DNA damage. To investigate how further knockdown of Dtymk and the consequent decrease in the dTTP pool could affect DNA metabolism, IdU pulse-labeling in Lkb1-wt and Lkb1-null cells was performed 2.5 and 3.5 days post-transduction with shDtymk-1. […] The representative images of Lkb1-wt and Lkb1-null cells co-stained for IdU and DAPI are shown (FIG. 5F). In addition, an overall lower proportion of labeled Lkb1-null than Lkb1-wt cells (43.1% vs. 57.7%) was observed, which may be related to the lower dNTP levels in Lkb1-null cells.

Lkb1-wt cells [3] = assay: IdU pulse-labeling after Dtymk knockdown, Lkb1-wt; type: cell-based, mouse; settings: for proportion of cells labeled with IdU: mean
Description: as §1, §2

Lkb1-null cells [4] = assay: Array-based viral infection and cell proliferation assay (validation), Lkb1-null; parameters: species or system mouse
Description: (§3) (C) Validation study. Relative viability of Lkb1-wt and Lkb1-null cells infected with 340 individual hairpins for 5 days. Genes of interest are highlighted by the colors indicated.
(§4) For array-based viral infection and assessment of proliferation, 2.5 μl virus was mixed with 250 cells in 100 μl medium containing 8 μg/ml polybrene per well in 96-well plates. The plates were spun at 2250 rpm/37° C. for 30 min. Immediately after spinning, supernatants were gently aspirated off and 100 μl fresh medium was added to each well of the 96-well plates. After 2 days incubation, medium was gently aspirated off and 100 fresh medium containing 3 μg/ml puromycin was added to each well of the 96-well plates. The plates were back to culture for additional 3 days and then the viable cells were monitored by alamarBlue (Invitrogen) assay according to manufacturer's instructions.
(§5) To identify Lkb1-null-selective essential genes, a synthetic lethal screen was performed using a pooled 40K murine shRNA lentiviral library for each of the Lkb1-wt and Lkb1-null cell lines described above. Relative abundance of shRNAs in each cell line sample was determined by deep-sequencing analysis, and for every shRNA, a log 2 Fold Change (log 2FC) value was calculated from the difference in relative abundance at a late time point after infection versus the initial shRNA-infected sample. An unsupervised hierarchical clustering analysis of the ranked hairpins from the triplicate pooled shRNA library screens of Lkb1-wt and Lkb1-null mouse cancer cells is shown in FIG. 1A. […] The ranked hairpins were collapsed by using two methods, a RIGER analysis (KS t-test based statistics) and a weighted second best analysis to rank genes that selectively impaired proliferation/viability in Lkb1-null cells. A union of 344 genes, identified by the top 100 individual hairpins for 88 genes (Table 1) and the top 200 genes from both the KS (Table 2) and weighted second best (Table 3), was nominated as the initial prioritized list (FIG. 1B). 340 shRNAs, targeting 70 candidate genes from this prioritized list, were chosen for validation (Table 4). The 70 genes consisted of the top 10 candidates from the KS analysis, as well as 60 others involved in a range of biological processes in an attempt to represent all biological categories in the validation process. Validation was performed in an array format with an assay of relatively short duration (5 days post infection) compared to the primary pooled screen (28 days), which should be a more stringent selection, as it required the anti-proliferative effects to manifest in a short time period. […] Dtymk, Check1, and Pdhb are the top 3 candidate genes, each with 3 hairpins that scored in the validation assay (FIG. 1C).

[5] = tested on: Lkb1-null versus Lkb1-wt cell lines; assay: Large-scale pooled shRNA library screening (murine 40K pool); type: cell-based, mouse
Lkb1-wt cells [6] = assay: Array-based viral infection and cell proliferation assay (validation), Lkb1-wt; parameters: species or system mouse; settings: 5 days post infection, alamarBlue
Description: as §3, §4, §5

Q: What does the source list for “shDtymk-1: shRNA hairpin CAAGCTTCTGAATTCCTACTT targeting Mouse Dtymk”?
A: growth of shDtymk-transduced Lkb1-null cells [1]: grew poorly; proportion of cells labeled with IdU (Lkb1-null cells [2]; day 2.5 post infection): 17.2%; proportion of cells labeled with IdU (Lkb1-null cells [2]; day 3.5 post infection): 5.8%; drop of proportion of IdU-labeled cells (Lkb1-null cells [2]; in 3.5 days): 86.5%; proportion of cells labeled with IdU (Lkb1-wt cells [3]; day 2.5 post infection): 46.3%; proportion of cells labeled with IdU (Lkb1-wt cells [3]; day 3.5 post infection): 22.3%; drop of proportion of IdU-labeled cells (Lkb1-wt cells [3]; in 3.5 days): 61.2%; Growth of Lkb1-wt/Lkb1-null in array-based validation (Lkb1-null cells [4]; Table 6): 4.16; Null ave-GR (Lkb1-null cells [4]; validation, 5 days post infection, alamarBlue): 0.13; Hairpin-rank in pooled shRNA screen ([5]; Table 6): 27050; NES ([5]; gene-level normalized enrichment score over all hairpins of the gene): 1.540; Gene rank ([5]; gene-level rank by NES): 91; # HP 500 ([5]; number of the gene's hairpins ranked within top 500): 1; # HP 1000 ([5]; number of the gene's hairpins ranked within top 1000): 1; # HP 5000 ([5]; number of the gene's hairpins ranked within top 5000): 1; # HP 10000 ([5]; number of the gene's hairpins ranked within top 10000): 2; WT ave-GR (Lkb1-wt cells [6]): 0.53
